Laboratory results as given in US11207343B2, “Compositions and therapeutic methods” (AyuVis Research LLC, priority 2016, dated 2021).

What was measured:
[1] = tested on: LPS induced cytokines (TNF-α, IL-1β and IL-6) in human monocytes; assay: Inhibition of LPS induced inflammatory mediators in human monocytes; type: cell-based; conditions: for inhibiting LPS induced inflammation biomarkers (TNF-α, IL-1β and IL-6) in human monocytes: concentration not given; for inhibition of LPS induced TNF-α production: 100 μM
Experimental: To understand the structural requirement and limitations to probe the TLR4 binding pocket for optimal potency and efficacy, we have studied the ability of chitooligomers to inhibit LPS induced inflammation in human monocytes (FIG-8 A-B). Compounds 1-4 inhibited LPS induced cytokines TNF-α, IL-1β and IL-6) in a statistically significant manner at 10 μM concentration. […] The protocol was followed as described [Panda etal, PLoS Pathog 2012, 8, e1002717]. Human monocytes were stimulated with LPS along with the series of compounds (10 μM) for 48 h. TNF-α, IL-1β, I1-6 in culture supernatants were quantified according to the manufacturer's instruction. Similarly, other analogs were assessed for their ability to inhibit LPS induced TNF-α production in human monocytes.

[2] = tested on: gram negative (E. Coli, P. Aeruginosa, A, Baumannii, K. Pneumonia), gram positive (MRSA), fungus (C. Albicans); assay: MIC broth microdilution antimicrobial screen; type: cell-based
Text: The compounds were screened against selected gram negative (E. Coli, P. Aeruginosa, A, Baumannii, K. Pneumonia), gram positive (MRSA) as well as fungus (C. Albicans) mostly found in burn and septic wounds. […] All prepared compounds have been evaluated in a Minimum Inhibitory Concentrations (MIC) assay with both test and control articles in accordance with guidelines of the Clinical Laboratory Standards Institute (CLSI) for broth microdilution susceptibility testing. Briefly, test and control compounds have been dissolved in DMSO, diluted to proper concentrations and added to 96-well microdilution trays. Brain Heart Infusion Broth (BHI) was used for studies with bacterial strains such as S. aureus, E. coli, P. Aeruginosa, K pneumoniae, A. baumannii and Candida albicans. Compounds were diluted serially from 200 μg/ml to 0.0625 μg/ml and plated in 96 well plates, and inoculated with approximately 1×10^5 CFU of each organism.

MRSA and MSSA strains = assay: Activity against MRSA and MSSA strains compared to colistin; type: cell-based, S. aureus; conditions: colistin as positive control
Text: (§1) Further we studied their biofilm inhibition and eradication activities against biofilm cells as described previously [Ceri et al, Journal of Clinical Microbiology 1999, 37, 1771-1776]. […] Thus, these compounds with activities against S. aureus biofilms will have significant impact on controlling recalcitrant biofilm-mediated endovascular infections [Li et al, J Infect Dis. 2016 Nov. 1;214(9):1421-1429; Archer et al, Virulence 2011, 2, 445-459]. Briefly, we used Calgary Biofilm Device (CBD) technology for the biofilm susceptibilities to compounds. The CBD produces 96 equivalent biofilms for the assay of antibiotic susceptibilities by the standard 96-well technology. Susceptibility to a standard group of compounds and antibiotics was determined for National Committee for Clinical Laboratory Standards (NCCLS) as described previously.

[3] = tested on: S. aureus biofilms (MRSA, MSSA); assay: Biofilm inhibition and eradication, Calgary Biofilm Device; type: cell-based
Text: as §1

[4] = tested on: LPS induced TNF-α in mouse bone marrow derived macrophages; assay: Inflammatory mediator (TNF-α) in mouse bone marrow derived macrophages; type: cell-based; conditions: for inhibition of LPS induced production of TNF-α: 100 μM, 8 hours, mouse bone marrow derived macrophages; for inhibiting LPS and HMGB1 induced inflammation biomarkers (TNF-α, IL-1β and IL-6): bone derived mouse macrophages
Experimental: Bone marrow derived mouse macrophages were treated with 100 μM of the above test compounds for 8 hours. Pro-inflammatory cytokines such as TNF-α protein level was measured by […]. LPS treatment (10 ng/ml) was used as positive control (FIG. 9).

[5] = tested on: HMGB1 induced VEGF production in ARPE-19 cells; assay: HMGB1 induced VEGF production in ARPE-19 cells (ELISA); type: cell-based, human; conditions: 50 μg/mL, 100 ng/mL HMGB1, 24 h, p<0.01
Text: Central to photoreceptor survival and function, the RPE is the major source of the angiogenic factor VEGF and therefore plays a central role in the modulation and progression of choroidal neovascularization [Spilsbury et al, The American Journal of Pathology 2000, 157, 135-144; Betts et al, ISRN Ophthalmology 2011, 2011, 184295] leading to AMD. As part of our preliminary result to evaluate if compounds 1 and 2 can inhibit the HMGB1 (an endogenous ligand for TLR4) induced VEGF production in ARPE-19 cells. […] 2×10^5 ARPE-19 cells were seeded in 24 well plate for 24 h in full medium containing 10% serum following which they were maintained for additional 24 h with serum free medium. Cells were treated with 0 μg/mL (medium) or 100 ng/mL of HMGB1 along with or without of 50 μg/mL of test compounds for 24 h. Supernatant was collected and assayed using human VEGF ELISA kit from Peprotech according to manufacturer's instructions. RPE cells are located adjacent to choroidal capillaries and other major ocular vasculatures.

[6] = tested on: laser-induced choroidal neovascularization; assay: Laser-induced CNV mouse model for wet AMD; type: in vivo, C57BL/6 mice
Text: The parameters used to reproducibly obtain successful laser spots (as confirmed by a gas bubble formation indicating rupture of Bruch membrane) were: 350 mW, 75 msec, and 50 μm spot size. Four laser spots were applied; 2-3 disc diameters from the optic nerve. […] By the end of the experiment, mouse eyes were examined by fundus fluorescein angiography and/or optical coherence tomography (OCT) to visualize the CNV lesions. Afterwards animals were sacrificed and RPE/choroid/sclera flat mounts were prepared and stained with both FITC-conjugated isolectin B4 and anti-ICAM-2 antibody to quantitatively measure the size of CNV. We have performed two experiments to test the effects of 1, 2, 26 on laser-induced CNV.

E. coli (ATCC-25922) = assay: Lethal gram negative E. coli sepsis mouse model; type: in vivo; conditions: 250 μg/animal with 2×10^5 CFU E. coli intraperitoneally, BALB/c mice
Experimental: In an in vivo mice model, chitohexaose (Compound 1) protected mouse from lethal gram negative sepsis against E. coli. Previously reported bacterial sepsis model [Roger etal, Proc Natl Acad Sci USA. 2009 Feb 17;106(7):2348-52] was recruited to study the efficacy of Compound 1 (FIG-1). Intraperitoneally 2×10^5 CFU of E. coli (ATCC-25922) was injected into BALB/c mice with and without Compound 1 (250 μg/animal). E. coli mediated sepsis induced mortality whereas simultaneous treatment of mice with Compound 1 protected (40%) from sepsis induced death. The above result explained that bacteria induced sepsis and mortality is inhibited and delayed for a certain period of time which may provide a window for therapy.

Compound	inhibiting LPS induced inflammation biomarkers (TNF-α, IL-1β and IL-6) in human monocytes [1]	inhibition of LPS induced TNF-α production ([1]; human monocytes)	activity against MRSA and MSSA strains compared to colistin (MRSA and MSSA strains)	inhibition of LPS induced production of TNF-α [4]	inhibiting LPS and HMGB1 induced inflammation biomarkers (TNF-α, IL-1β and IL-6) [4]	HMGB1 induced VEGF production [5]	also measured
CC1(C)CC(C(=O)NC2C(OC3C(CO)OC(O)C(N)C3O)OC(CO)C(OC3OC(CO)C(O)C(O)C3N)C2O)CC(C)(C)N1[O] (stereo not shown) [Compound 11]	unexpectedly superior activity	–	–	–	–	–	–
CC(=O)NC1C(OC2C(CO)OC(Oc3ccc4c(C)cc(=O)oc4c3)C(NC(C)=O)C2O)OC(CO)C(O)C1O (stereo not shown) [Compound 12]	–	potent inhibitor	better activity	–	–	–	broad spectrum antimicrobial activity against gram negative, gram positive bacteria and fungus [2]: broad spectrum antimicrobial activity; inhibition of biofilm formation by MSSA and MRSA [3]: unexpectedly inhibited biofilm formation
COCC1OC(Oc2ccc([N+](=O)[O-])cc2)C(NC(C)=O)C(O)C1O (stereo not shown) [Compound 16]	–	potent inhibitor	–	–	–	–	–
chitohepatose [Compound 2]	unexpectedly potent activity	–	–	Inhibits	unexpectedly potent activity	effectively reduced	potency relative to chitohexaose (Compound 1), percentage of inhibition of LPS mediated induction of inflammatory cytokines ([1]; 10 μM, human monocytes): more potent than chitohexaose; average size of CNV lesions, relative to control mice treated with vehicle only ([6]; 200 μg daily i.p. injection): about 60%; decrease of choroidal neovascularization ([6]; as worded in heading of Example 16): ~60%
chitohexaose [Compound 1]	–	–	better activity	Inhibits	–	effectively reduced	protection from sepsis induced death (E. coli (ATCC-25922)): 40%
chitooctaose [Compound 3]	unexpectedly potent activity	–	–	–	unexpectedly potent activity	–	–
